In the OligoGym collection:
These antisense oligonucleotides have a phosphorothioate backbone; sugars and methylation of C are not fully specified.

How the values were obtained:
Settings in all cases: ASO
DUSP9 = target: DUSP9
DUSP8 = target: DUSP8
PIK3CB = target: PIK3CB
Further: test concentration or dose not given here.

| Sequence | remaining target (mRNA or protein) (fraction of control) (DUSP9) | remaining target (mRNA or protein) (fraction of control) (DUSP8) | other results |
| --- | --- | --- | --- |
| AAGAACCGCGACAGGTTCTG | 0.83 | – | – |
| AAGCTGTCTGCGGCCAGCAC | – | 0.71 | – |
| ACCCTCCATGGGCGATCGGC | 0.43 | – | – |
| ACCTGGCTGCGTGCAGCCGG | – | ≥ 1 | – |
| AGAAGAGGCAGGCTCCGAGC | 0.53 | – | – |
| AGACCCTCCATGGGCGATCG | 0.45 | – | – |
| AGAGCGGGAGATGCCAGCCA | – | 0.32 | – |
| AGAGGTGAGGCAGGATGCGG | – | ≥ 1 | – |
| AGCAGATGTTGACGGAGCTG | – | ≥ 1 | – |
| AGCCCCAGTGATCCCGTCAA | ≥ 1 | – | – |
| AGCGGCCCAGACCCTCCATG | 0.46 | – | – |
| AGCTGGCCCAGGAAGTTGAA | – | 0.95 | – |
| AGGAGAGGTGCAGGCCGCGC | – | 0.91 | – |
| AGGAGCAGGAGCCGCGGCCG | 0.7 | – | – |
| AGGCCATGGATGTGGGCGGC | 0.57 | – | – |
| AGGCCCCAGCCCCGAGAGGC | 0.54 | – | – |
| ATCAGATCCTTGTTTAGGAC | – | ≥ 1 | – |
| ATTAGGACGGCAGCCCGCGT | ≥ 1 | – | – |
| CACCATGCCCTCCTCGAACT | – | 0.84 | – |
| CAGCAGGGTGCCCAGCACCG | ≥ 1 | – | – |
| CAGGCTTGCCCTCGCAGAGG | – | ≥ 1 | – |
| CAGGGCGGCCAGCAGCTTCA | – | ≥ 1 | – |
| CATATTAGGAGACACTTGAA | – | – | remaining target (mRNA or protein) (fraction of control) (PIK3CB): ≥ 1 |
| CATGGGCGATCGGCTCCCTA | 0.85 | – | – |
| CCACGGGCACTGGACCGGGC | 0.5 | – | – |

| Sequence | remaining target (mRNA or protein) (fraction of control) (DUSP9) | remaining target (mRNA or protein) (fraction of control) (DUSP8) | other results |
| --- | --- | --- | --- |
| CCAGACCCTCCATGGGCGAT | ≥ 1 | – | – |
| CCAGGCAGGAGCGCGCGCAC | 0.62 | – | – |
| CCATAACATCTGCTTAATAT | – | – | remaining target (mRNA or protein) (fraction of control) (PIK3CB): ≥ 1 |
| CCCAGGCCCGCCCCGCAGCA | – | 0.66 | – |
| CCCAGGGCCGGGACCTGGGC | 0.98 | – | – |
| CCCATGAAGTTGAAGTTGGG | 0.44 | – | – |
| CCCGTCGGGCGACGGCGTGC | – | ≥ 1 | – |
| CCGACGGGCTGTCCAGCTTG | – | 0.94 | – |
| CCGGGCACTGCCCAGATAGA | 0.62 | – | – |
| CCTCAGGCGCGGCGTCCGGG | – | ≥ 1 | – |
| CCTCCATGGGCGATCGGCTC | 0.7 | – | – |
| CGAAGAAGTTTGGGAGGTTG | 0.3 | – | – |
| CGAGCACCCCGCAGTTCTGG | 0.94 | – | – |
| CGAGCCCTCCTGCCCTCCCC | 0.65 | – | – |
| CGAGCGGCCCAGACCCTCCA | ≥ 1 | – | – |
| CGCCCGCCCGGCCGAAGGGC | – | 0.86 | – |
| CGGCCCAGACCCTCCATGGG | 0.57 | – | – |
| CGTCGCGGCCGGGAAGTTTC | 0.95 | – | – |
| CTCAGGCCGCCCTCCCTGGC | – | 0.65 | – |
| CTCATGGAGTCGCGGTCAGC | 0.86 | – | – |
| CTCCTGCGAGTGGCGCTCCT | ≥ 1 | – | – |
| CTGGAAGAAAAGGTCTGACA | – | – | remaining target (mRNA or protein) (fraction of control) (PIK3CB): ≥ 1 |
| CTTCCCATGAATAGTCAAAC | – | – | remaining target (mRNA or protein) (fraction of control) (PIK3CB): 0.53 |
| GACAGAAATGAATGACTGTG | 0.14 | – | – |
| GACCCCATCTCCTCCGGCGG | 0.23 | – | – |

| Sequence | remaining target (mRNA or protein) (fraction of control) (DUSP9) | remaining target (mRNA or protein) (fraction of control) (DUSP8) | other results |
| --- | --- | --- | --- |
| GACTGAAGGTGGCCTCGTAT | – | 0.69 | – |
| GAGAGCTTGGCTTTATCGAT | – | 0.68 | – |
| GAGCCGGTCCCCAGCCATGG | – | ≥ 1 | – |
| GAGCTCGAGGACCACCCGCA | – | 0.89 | – |
| GAGGATAACACATGGGTTCA | – | – | remaining target (mRNA or protein) (fraction of control) (PIK3CB): ≥ 1 |
| GAGGTTGAACATTGGGTAAT | – | – | remaining target (mRNA or protein) (fraction of control) (PIK3CB): 0.79 |
| GATCCTTCAAGGAATCAAAT | – | – | remaining target (mRNA or protein) (fraction of control) (PIK3CB): 0.91 |
| GATGTCTGCCATAGCAGGAG | – | – | remaining target (mRNA or protein) (fraction of control) (PIK3CB): ≥ 1 |
| GCCACGCTCAGCGCCCCACC | 0.94 | – | – |
| GCCCAGACCCTCCATGGGCG | 0.92 | – | – |
| GCCTGTCCTTCACGAACCTG | – | ≥ 1 | – |
| GCTGGACCTCGCTCGCGCTC | – | ≥ 1 | – |
| GGAGAAGGAGCGCTTGAGGC | – | 0.98 | – |
| GGCAGGCAGGGCTGGGAGAG | – | ≥ 1 | – |
| GGCATTATGAAACTGAAGCA | – | – | remaining target (mRNA or protein) (fraction of control) (PIK3CB): ≥ 1 |
| GGCCAAATCTGAAGCAGCGC | – | – | remaining target (mRNA or protein) (fraction of control) (PIK3CB): ≥ 1 |
| GGCCAGCCGGTCCGCGCGTC | – | 0.52 | – |
| GGCTGCTCCGACGGCCCAGG | – | ≥ 1 | – |
| GGGCAAAAGGAAATCCACAG | – | – | remaining target (mRNA or protein) (fraction of control) (PIK3CB): ≥ 1 |
| GGGCAGCCCGGGCGCCGACA | – | 0.81 | – |
| GGGCCCCGCAGCAGCAAAAG | 0.35 | – | – |
| GGGCGCTCCGCTCTGCTCGG | 0.8 | – | – |
| GTAGGTGGTGGCAGCCGTGG | – | ≥ 1 | – |
| GTCAATATCCATAAGGAGGT | – | – | remaining target (mRNA or protein) (fraction of control) (PIK3CB): ≥ 1 |
| GTCAGGACACCTCGATGACC | – | ≥ 1 | – |

| Sequence | remaining target (mRNA or protein) (fraction of control) (DUSP9) | remaining target (mRNA or protein) (fraction of control) (DUSP8) | other results |
| --- | --- | --- | --- |
| GTCGAAGCAGCCGTCCAGCT | – | ≥ 1 | – |
| GTGGCACACACCCTTCCTGA | ≥ 1 | – | – |
| TAAACACGTCCTGGCAGTTT | – | – | remaining target (mRNA or protein) (fraction of control) (PIK3CB): ≥ 1 |
| TAAGGCAACATCCGAAGATC | – | – | remaining target (mRNA or protein) (fraction of control) (PIK3CB): 0.96 |
| TACATTTTCTTGATCTTGCA | – | – | remaining target (mRNA or protein) (fraction of control) (PIK3CB): ≥ 1 |
| TATAAGAAATGGTAGCTTCC | – | – | remaining target (mRNA or protein) (fraction of control) (PIK3CB): ≥ 1 |
| TATTGAGAAAGTTCTTCATC | – | – | remaining target (mRNA or protein) (fraction of control) (PIK3CB): 0.86 |
| TCACCTTGCCCTGCTGCAGC | – | 0.33 | – |
| TCCATGGGCGATCGGCTCCC | 0.74 | – | – |
| TCGCCTGCTTGCCCAGGGCG | – | 0.69 | – |
| TCTGCCGGGCCGCATCGCCG | – | 0.35 | – |
| TGCAACACATAATCATAGGG | – | – | remaining target (mRNA or protein) (fraction of control) (PIK3CB): ≥ 1 |
| TGCCAATTCATTTACTTTGA | – | – | remaining target (mRNA or protein) (fraction of control) (PIK3CB): ≥ 1 |
| TGCCCATGGTCTTCATGATG | – | 0.7 | – |
| TGCTATCTGTGAATCCACCG | – | – | remaining target (mRNA or protein) (fraction of control) (PIK3CB): 0.99 |
| TGGTCATAGACCACCACGTC | – | ≥ 1 | – |
| TGTAATATTATGTCTCCAGT | – | – | remaining target (mRNA or protein) (fraction of control) (PIK3CB): 0.9 |
| TTCACTTTAGTAGTCCAGCT | – | – | remaining target (mRNA or protein) (fraction of control) (PIK3CB): 0.89 |
| TTCCCGAGGTACCTCCAACT | – | – | remaining target (mRNA or protein) (fraction of control) (PIK3CB): 0.7 |
| TTCTTTGCATTATATATAAT | – | ≥ 1 | – |
| TTGCTGGCGTTGAGGACGTA | – | 0.45 | – |
| TTTCACAGTAGTTGTCGTTG | – | ≥ 1 | – |
